Measurements reported in patent US8378117B2 (priority 2005, dated 2013).
Like-named read-outs stand apart in the source and are kept apart here.

Assays:
CB1 receptor = biological target: T1, CB1 receptor (Homo sapiens, UniProt P21554); experiment: Binding assay for CB1 agonists or inverse agonists (SK-N-MC membranes, [3H]-CP-55,940); conditions: for inhibition at 1 µM: read-out: CB1 receptor binding percent inhibition, test concentration 1 μM (footnote 1); for inhibition at 0.5 µM: read-out: CB1 receptor binding percent inhibition, test concentration 0.5 μM (footnote 10); for inhibition at 0.002 µM: read-out: CB1 receptor binding percent inhibition, test concentration 0.002 μM (footnote 11); for CB1 receptor binding percent inhibition: test concentration not stated
T1 construct: expressed in transfected cells
T1 sequence (P21554 whole entry): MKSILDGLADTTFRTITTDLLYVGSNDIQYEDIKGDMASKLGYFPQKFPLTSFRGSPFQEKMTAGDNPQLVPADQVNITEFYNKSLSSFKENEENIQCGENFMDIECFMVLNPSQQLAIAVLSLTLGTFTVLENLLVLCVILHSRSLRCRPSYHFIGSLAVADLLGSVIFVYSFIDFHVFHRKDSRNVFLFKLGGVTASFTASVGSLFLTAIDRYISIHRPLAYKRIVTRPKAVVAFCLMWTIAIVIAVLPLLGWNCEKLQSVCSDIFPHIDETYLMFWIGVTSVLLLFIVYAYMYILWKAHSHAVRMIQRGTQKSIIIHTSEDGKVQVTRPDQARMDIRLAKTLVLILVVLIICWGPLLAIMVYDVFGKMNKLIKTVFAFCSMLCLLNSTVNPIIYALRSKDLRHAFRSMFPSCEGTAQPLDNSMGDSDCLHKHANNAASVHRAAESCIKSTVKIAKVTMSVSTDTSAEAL
Method in brief: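 Radioligand displacement: [3H]-CP-55,940 at […], 90 min at 30° C, pH 7.5 Tris buffer with 0.5 mg/mL fatty-acid-free BSA, using semi-purified membranes of human-CB1-transfected SK-N-MC cells. Bound counts collected on GF/C filters, 10 uM WIN 55,212 for non-specific; IC50 from percent inhibition over several concentrations.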

CB2 receptor = biological target: T2, CB2 receptor (Homo sapiens, UniProt P34972); experiment: Binding assay for CB2 agonists or inverse agonists (SK-N-MC membranes, [3H]-CP-55,940)
T2 construct: expressed in transfected cells
T2 sequence (P34972 whole entry): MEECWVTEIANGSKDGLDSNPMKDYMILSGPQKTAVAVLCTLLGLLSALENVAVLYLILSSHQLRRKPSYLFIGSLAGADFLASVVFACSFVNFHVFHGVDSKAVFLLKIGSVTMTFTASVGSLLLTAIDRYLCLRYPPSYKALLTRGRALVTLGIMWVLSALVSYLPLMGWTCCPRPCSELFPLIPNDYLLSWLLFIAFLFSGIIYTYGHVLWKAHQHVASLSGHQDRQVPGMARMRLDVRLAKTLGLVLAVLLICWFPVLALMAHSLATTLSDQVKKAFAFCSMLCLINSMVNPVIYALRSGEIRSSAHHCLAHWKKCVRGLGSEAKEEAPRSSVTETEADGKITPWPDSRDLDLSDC
Method in brief: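 IC50 came from percent-inhibition data over several compound concentrations, fitted by linear regression. Binding used semi-purified membranes of human CB2-transfected SK-N-MC cells, 90 min at 30 °C, pH 7.5 Tris-HCl with MgCl2, EDTA and BSA, then filtration and scintillation counting.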

[1] = Cannabinoid CB1 Receptor Binding IC50, calculated by linear regression from percent inhibition at various test concentrations
[2] = read-out: CB1 receptor binding percent inhibition, test concentration 0.2 μM (footnote 2)
[3] = test concentration 0.2 μM (footnote 2)
[4] = test concentration 0.2 μM (footnote 2), read-out: CB2 receptor binding percent inhibition

| Compound | inhibition at 1 µM (CB1 receptor) [%] | CB2 receptor binding percent inhibition (CB2 receptor; test concentration not stated) [%] | inhibition at 0.2 µM (CB1 receptor; [2]) [%] | inhibition at 0.2 µM (CB2 receptor; [4]) [%] | other results |
| --- | --- | --- | --- | --- | --- |
| C[C@H](NS(=O)(=O)/C=C/c1nn(C)c2c1CCCCC2Cc1ccc(F)cc1)c1ccccc1 (stereo partly drawn) [Cpd 101, (2E)-2-[8-(4-fluoro-benzyl)-1-methyl-1,4,5,6,7,8-hexahydro-cycloheptapyrazol-3-yl]-ethenesulfonic acid [(1S)-1-phenyl-ethyl]-amide] | 28 |  |  |  | IC50 (CB2 receptor; Cannabinoid CB2 Receptor Binding IC50, calculated by linear regression from percent inhibition at various test concentrations): 40 nM; inhibition at 1 µM (CB2 receptor; test concentration 1 μM (footnote 1), read-out: CB2 receptor binding percent inhibition): 97% |
| COC(=O)[C@@H](Cc1ccc(F)cc1)NC(=O)c1nn(-c2ccc(Cl)cc2Cl)c2c1CCCCC2Cc1cccc(Cl)c1 (stereo partly drawn) [Cpd 103, (2R)-2-{[8-(3-chloro-benzyl)-1-(2,4-dichloro-phenyl)-1,4,5,6,7,8-hexahydro-cycloheptapyrazole-3-carbonyl]-amino}-3-(4-fluoro-phenyl)-propionic acid methyl ester] | 76 | 57 |  |  | IC50 (CB1 receptor; [1]): 300 nM; inhibition at 0.5 µM (CB1 receptor): 56% |
| CCOC(=O)[C@@H]1C2CCC(C2)[C@@H]1NC(=O)c1nn(C2CCCCC2)c2c1CCCCC2Cc1cccc(F)c1 (stereo partly drawn) [Cpd 105, (2R,3S)-3-{[1-cyclohexyl-8-(3-fluoro-benzyl)-1,4,5,6,7,8-hexahydro-cycloheptapyrazole-3-carbonyl]-amino}-bicyclo[2.2.1]heptane-2-carboxylic acid ethyl ester] | 2 | 82 |  |  |  |
| CCOC(=O)[C@@H]1C2CCC(C2)[C@@H]1NC(=O)c1nn(C2CCCCC2)c2c1CCCCC2Cc1ccc(F)cc1 (stereo partly drawn) [Cpd 106, (2R,3S)-3-{[1-cyclohexyl-8-(4-fluoro-benzyl)-1,4,5,6,7,8-hexahydro-cycloheptapyrazole-3-carbonyl]-amino}-bicyclo[2.2.1]heptane-2-carboxylic acid ethyl ester] | 45 | 95 |  |  |  |
| CCOC(=O)[C@@H]1C2CCC(C2)[C@@H]1NC(=O)c1nn(-c2ccc(Cl)cc2Cl)c2c1CCCCC2Cc1cccc(Cl)c1 (stereo partly drawn) [Cpd 109, (2R,3S)-3-{[8-(3-chloro-benzyl)-1-(2,4-dichloro-phenyl)-1,4,5,6,7,8-hexahydro-cycloheptapyrazole-3-carbonyl]-amino}-bicyclo[2.2.1]heptane-2-carboxylic acid ethyl ester] | 72 | 48 |  |  | IC50 (CB1 receptor; calculated by linear regression from percent inhibition at various test concentrations, read-out: Cannabinoid CB1 Receptor Binding IC50): 300 nM; inhibition at 0.5 µM (CB1 receptor): 60% |
| O=C(N[C@@H]1c2ccccc2C[C@@H]1O)c1nn(-c2ccc(F)cc2F)c2c1CCCCC2Cc1ccc(F)cc1 (stereo partly drawn) [Cpd 119, 1-(2,4-difluoro-phenyl)-8-(4-fluoro-benzyl)-1,4,5,6,7,8-hexahydro-cycloheptapyrazole-3-carboxylic acid [(1R,2S)-2-hydroxy-indan-1-yl]-amide] | 39 | 38 |  |  |  |
| Cn1nc(/C=C/S(=O)(=O)NN2CCOCC2)c2c1C(Cc1cccc(F)c1)CCCC2 (centres unmarked) [Cpd 125, (2E)-2-[8-(3-fluoro-benzyl)-1-methyl-1,4,5,6,7,8-hexahydro-cycloheptapyrazol-3-yl]-ethenesulfonic acid morpholin-4-ylamide] | 0 | 30 |  |  |  |
| Cn1nc(/C=C/S(=O)(=O)NN2CCOCC2)c2c1C(Cc1ccc(F)cc1)CCCC2 (centres unmarked) [Cpd 126, (2E)-2-[8-(4-fluoro-benzyl)-1-methyl-1,4,5,6,7,8-hexahydro-cycloheptapyrazol-3-yl]-ethenesulfonic acid morpholin-4-ylamide] | 0 | 65 |  |  |  |
| O=S(=O)(/C=C/c1nn(-c2ccc(F)cc2F)c2c1CCCCC2Cc1ccc(F)cc1)NN1CCOCC1 (centres unmarked) [Cpd 127, (2E)-2-[1-(2,4-difluoro-phenyl)-8-(4-fluoro-benzyl)-1,4,5,6,7,8-hexahydro-cycloheptapyrazol-3-yl]-ethenesulfonic acid morpholin-4-ylamide] | 36 | 0 |  |  |  |
| O=C(NCc1ccccc1)c1n[nH]c2c1CCCCC2Cc1ccc(F)cc1 (centres unmarked) [Cpd 129, 8-(4-fluoro-benzyl)-1,4,5,6,7,8-hexahydro-cycloheptapyrazole-3-carboxylic acid benzylamide] |  |  |  |  | inhibition at 0.002 µM (CB1 receptor): 92%; inhibition at 0.008 µM (CB1 receptor; read-out: CB1 receptor binding percent inhibition, test concentration 0.008 μM (footnote 12)): 90%; inhibition at 0.25 µM (CB1 receptor; read-out: CB1 receptor binding percent inhibition, test concentration 0.25 μM (footnote 8)): 100%; CB1 receptor binding percent inhibition (CB1 receptor): 94%; inhibition at 0.25 µM (CB2 receptor; test concentration 0.25 μM (footnote 8), read-out: CB2 receptor binding percent inhibition): 86% |
| C[C@H](NC(=O)c1nn(-c2ccc(Cl)cc2Cl)c2c1CCCC/C2=C\c1ccc(Cl)cc1)c1ccccc1 [Cpd 139, (8E)-8-(4-chloro-benzylidene)-1-(2,4-dichloro-phenyl)-1,4,5,6,7,8-hexahydro-cycloheptapyrazole-3-carboxylic acid [(1S)-1-phenyl-ethyl]-amide] |  |  | 72 |  | IC50 (CB1 receptor; [1]): 50 nM; inhibition at 0.2 µM (CB2 receptor; read-out: CB2 receptor binding percent inhibition, test concentration 0.2 μM (footnote 2)): 30% |
| C[C@@H](NC(=O)c1n[nH]c2c1CCCC/C2=C\c1ccc(Cl)cc1)C1CCCCC1 [Cpd 140, (8E)-8-(4-chloro-benzylidene)-1,4,5,6,7,8-hexahydro-cycloheptapyrazole-3-carboxylic acid [(1R)-1-cyclohexyl-ethyl]-amide] |  |  | 97 |  | IC50 (CB1 receptor; [1]): 6 nM; CB2 receptor binding percent inhibition (CB2 receptor; [3]): ^(2)100% |
| C[C@H](NC(=O)c1n[nH]c2c1CCCC/C2=C\c1ccc(Cl)cc1)c1ccccc1 [Cpd 141, (8E)-8-(4-chloro-benzylidene)-1,4,5,6,7,8-hexahydro-cycloheptapyrazole-3-carboxylic acid [(1S)-1-phenyl-ethyl]-amide] |  |  |  |  | IC50 (CB1 receptor; [1]): 6 nM; inhibition at 0.2 µM (CB1 receptor; read-out: CB1 receptor binding percent inhibition): 95%; CB2 receptor binding percent inhibition (CB2 receptor; [3]): ^(2)97% |
| C[C@H](NC(=O)c1n[nH]c2c1CCCC/C2=C\c1ccc(Cl)cc1)C1CCCCC1 [Cpd 143, (8E)-8-(4-chloro-benzylidene)-1,4,5,6,7,8-hexahydro-cycloheptapyrazole-3-carboxylic acid [(1S)-1-cyclohexyl-ethyl]-amide] |  |  | 99 |  | IC50 (CB1 receptor; [1]): 2 nM; inhibition at 0.002 µM (CB1 receptor): 55%; CB1 receptor binding percent inhibition (CB1 receptor): 77%; CB2 receptor binding percent inhibition (CB2 receptor; [3]): ^(2)100% |
| O=C(NN1CCCCC1)c1n[nH]c2c1CCCC/C2=C\c1ccc(Cl)cc1 [Cpd 144, (8E)-8-(4-chloro-benzylidene)-1,4,5,6,7,8-hexahydro-cycloheptapyrazole-3-carboxylic acid piperidin-1-ylamide] |  |  | 69 |  | IC50 (CB1 receptor; [1]): 30 nM; CB2 receptor binding percent inhibition (CB2 receptor; [3]): ^(2)90% |
| O=C(NN1CCOCC1)c1n[nH]c2c1CCCC/C2=C\c1ccc(Cl)cc1 [Cpd 145, (8E)-8-(4-chloro-benzylidene)-1,4,5,6,7,8-hexahydro-cycloheptapyrazole-3-carboxylic acid morpholin-4-ylamide] |  |  | 54 | 68 |  |
| O=C(Nc1ccncc1)c1nn(-c2ccc(Cl)cc2Cl)c2c1CCCC/C2=C\c1ccc(Cl)cc1 [Cpd 153, (8E)-8-(4-chloro-benzylidene)-1-(2,4-dichloro-phenyl)-1,4,5,6,7,8-hexahydro-cycloheptapyrazole-3-carboxylic acid pyridin-4-ylamide] |  |  | 44 | 0 |  |
| NS(=O)(=O)c1ccc(NC(=O)c2nn(-c3ccc(Cl)cc3Cl)c3c2CCCC/C3=C\c2ccc(Cl)cc2)cc1 [Cpd 154, (8E)-8-(4-chloro-benzylidene)-1-(2,4-dichloro-phenyl)-1,4,5,6,7,8-hexahydro-cycloheptapyrazole-3-carboxylic acid (4-sulfamoyl-phenyl)-amide] |  |  | 33 | 7 |  |
| CC(C)[C@@H](CO)NC(=O)c1nn(-c2ccc(Cl)cc2Cl)c2c1CCCC[C@@H]2Cc1cccc(Cl)c1 [Cpd 158, (8R)-8-(3-chloro-benzyl)-1-(2,4-dichloro-phenyl)-1,4,5,6,7,8-hexahydro-cycloheptapyrazole-3-carboxylic acid [(1S)-1-hydroxymethyl-2-methyl-propyl]-amide] |  |  | 14 | 0 |  |
| CC(C)[C@@H](CO)NC(=O)c1nn(-c2ccc(Cl)cc2Cl)c2c1CCCC[C@H]2Cc1cccc(Cl)c1 [Cpd 159, (8S)-8-(3-chloro-benzyl)-1-(2,4-dichloro-phenyl)-1,4,5,6,7,8-hexahydro-cycloheptapyrazole-3-carboxylic acid [(1S)-1-hydroxymethyl-2-methyl-propyl]-amide] |  |  | 40 | 3 |  |
| C[C@H](NS(=O)(=O)/C=C/c1n[nH]c2c1CCCCC2Cc1cccc(Cl)c1)c1ccccc1 (stereo partly drawn) [Cpd 160, (2E)-2-[8-(3-chloro-benzyl)-1,4,5,6,7,8-hexahydro-cycloheptapyrazol-3-yl]-ethenesulfonic acid [(1S)-1-phenyl-ethyl]-amide] |  |  | 2 | 75 |  |
| O=C(N[C@H](CO)c1ccccc1)c1nn(-c2ccc(Cl)cc2Cl)c2c1CCCC[C@@H]2Cc1cccc(Cl)c1 [Cpd 161, (8R)-8-(3-chloro-benzyl)-1-(2,4-dichloro-phenyl)-1,4,5,6,7,8-hexahydro-cycloheptapyrazole-3-carboxylic acid [(1S)-2-hydroxy-1-phenyl-ethyl]-amide] |  |  | 35 | 3 |  |
